Data from US20180193274A1, “COMPOSITIONS FOR ILEO-JEJUNAL DRUG DELIVERY” (Principia Biopharma Inc., priority 2014, published 2018).
Read-outs that look alike come from different tables or passages of the source.

Assays:
[1] = Pharmacokinetic experiment comparing oral gavage, intra-duodenal and intra-jejunal dosing in rats; type: in vivo, Wister-Hans rats
Description: FIG. 1 depicts the results of a pharmacokinetic experiment comparing oral and intra-duodenal gavage dosing of (R)-2-(3-(4-amino-3-(2-fluoro-4-phenoxyphenyl)-1H-pyrazolo[3,4-d]pyrimidin-1-yl)piperidine-1-carbonyl)-4-methyl-4-(4-(oxetan-3-yl)piperazin-1-yl)pent-2-enenitrile having E/Z ratio of about 9:1. The area under the curve (AUC) and the Cmax are plotted.
(R)-2-(3-(4-amino-3-(2-fluoro-4-phenoxyphenyl)-1H-pyrazolo[3,4-d]pyrimidin-1-yl)piperidine-1-carbonyl)-4-methyl-4-(4-(oxetan-3-yl)piperazin-1-yl)pent-2-enenitrile was dosed in 10 mg/mL aqueous citrate solution at 20 mg/kg to Wister-Hans rats. Anhydrous citric acid (0.5 equivalents) was added to the free base of (R)-2-(3-(4-amino-3-(2-fluoro-4-phenoxyphenyl)-1H-pyrazolo[3,4-d]pyrimidin-1-yl)piperidine-1-carbonyl)-4-methyl-4-(4-(oxetan-3-yl)piperazin-1-yl)pent-2-enenitrile. The experiment was repeated 3 times each with 2 separate arms, and one oral gavage arm was included in each study. Intra-jejunal (IJ) and intra-duodenal dosing was done in cannulated rats. In the first study, there was a 40-fold increase in the AUC for the IJ-dosed group compared to the PO group, and the metabolite present in the IJ-group was reduced 10-fold.

[2] = cited from earlier work
[3] = 20 mg/kg, intra-duodenal vs oral, FIG. 1
[4] = 20 mg/kg, intra-jejunal vs oral, FIG. 1

| AUC, ID dosing compared to PO dosing [1, 3] | Cmax, ID dosing compared to PO dosing [1, 3] | AUC, IJ dosing compared to PO dosing [1, 4] | Cmax, IJ dosing compared to PO dosing [1, 4] | increase in the AUC for the IJ-dosed group compared to the PO group ([1]; first study, 20 mg/kg in 10 mg/mL aqueous citrate solution, intra-jejunal vs oral gavage) | Compound | bioavailability as determined by AUC ([2]; administered intraduodenally) | bioavailability as determined by AUC ([2]; direct oral administration) |
| --- | --- | --- | --- | --- | --- | --- | --- |
| increased | increased | substantially increased | substantially increased | 40 fold | CC(C)(C=C(C#N)C(=O)N1CCC[C@@H](n2nc(-c3ccc(Oc4ccccc4)cc3F)c3c(N)ncnc32)C1)N1CCN(C2COC2)CC1 [(R)-2-(3-(4-amino-3-(2-fluoro-4-phenoxyphenyl)-1H-pyrazolo[3,4-d]pyrimidin-1-yl)piperidine-1-carbonyl)-4-methyl-4-(4-(oxetan-3-yl)piperazin-1-yl)pent-2-enenitrile] | – | – |
| – | – | – | – | – | C=CC(=O)N1CCC[C@@H](n2nc(-c3ccc(Oc4ccccc4)cc3)c3c(N)ncnc32)C1 [ibrutinib, 1-[(3R)-3-[4-Amino-3-(4-phenoxyphenyl)-1H-pyrazolo[3,4-d]pyrimidin-1-yl]piperidin-1-yl]prop-2-en-1-one] | 100% | 21% |
